Entries after “also recorded” stand apart in the source; their conditions may differ.
Key:
[1] = test system: IL-1β production by human PBMCs; experiment: IL-1β production by human PBMCs stimulated with PRR ligands with or without caspase-1 inhibitor (ELISA); format: cell-based; conditions: 24 h stimulation, 50 healthy donors
[2] = test system: IL-1β production of PBMCs from gout patients; conditions: MSU or C16.0 alone; cited from earlier work

**Q.** Which “induction of IL-1β production by human PBMCs” value (from here on “induction of IL-1β production”) [1] does the source give for Pam3cys here?
**A.** strong inducers

**Q.** With Flagellin as the compound, how does the “induction of IL-1β production” value [1] read?
**A.** weak inducer

**Q.** With `CC(=O)N[C@H]1C(O)O[C@H](CO)[C@@H](O)[C@@H]1O[C@H](C)C(=O)N[C@@H](C)C(=O)N[C@H](CCC(=O)O)C(N)=O` (mixture of isomers) [MDP, Muramyl dipeptide] as the compound, how does the “induction of IL-1β production” value [1] read?
**A.** strong inducers; also recorded: weak inducer

**Q.** With `CCCCCCCCCCCCCCCC(=O)O` [C16.0, Palmitic acid] as the compound, how does the “release of IL-1β by the single component alone” value [2] read?
**A.** neither does
